In US9775833B2, “Method for the treatment of NF1- or RAS-associated disorders” (The Trustees of Dartmouth College, priority 2015, dated 2017):
“Also recorded” adds a separate entry of the source.

What was measured:
[1] = test system: yeast model of NF1 deficiency (IRA2, yeast homolog of human NF1); assay: Yeast growth assay, yeast model of NF1 deficiency (OD 600 nm); type: cell-based, Saccharomyces cerevisiae; conditions: increasing concentrations, 18 hours
Protocol: (§1) IRA2 is a yeast homolog of human NF1. Cells were grown in the presence of increasing concentrations of compound 1 for 18 hours. The absorbance (OD 600 nm) was measured as a surrogate marker of cell growth. The assay has been described previously: see Sanchez et al., Mol. Cancer Ther. 2011 Sep.: 10(9):1740-1750.
(§2) IRA2 is a yeast homolog of human NF1. Cells were grown in the presence of increasing concentrations of Y100B for 18 hours. The absorbance (OD 600 nm) was measured as a surrogate marker of cell growth. The assay has been described previously: see Sanchez et al., Mol. Cancer Ther. 2011 Sep.: 10(9):1740-1750.

[2] = test system: U251-MG cells; assay: Mitochondrial immunofluorescence (Mitotracker Red / TOMM20) in U251-MG cells; type: cell-based, human; conditions: Mitotracker Red and TOMM20
[3] = test system: lysine 63 and lysine 48 polyubiquitin linked-proteins; assay: K63/K48 polyubiquitin western blot in U87-MG cells; type: cell-based, human; conditions: 24 hours, comparable to HCQ (50 uM, 24 h) or MG132 plus bortezomib cocktail
Protocol: (§3) Western Blotting. U87-MG cells were plated at a concentration of 500,000 cells per well in a 6-well plate and allowed to adhere overnight. Cells were treated with the noted concentrations and times of controls or compound 1. After treatment, cells were harvested with trypsin, rinsed, and lysed with approximately 75 microliters RIPA buffer with protease and phosphatase inhibitors per 500,000 cells. Protein was quantified with a BCA assay kit (Pierce). 30 micrograms of protein was separated on a 4-15% SDS-PAGE gel (Bio-Rad) by SDS gel electrophoresis. Protein was transferred to a nitrocellulose membrane, blocked with 5% milk in TBST and probed with LC3B (Cell Signaling, 1:1000, overnight), p62/SQSTM-1 (Santa Cruz, 1:1000, 1 h), tubulin (Santa Cruz, 1:10000, 1 h), K63 ubiquitin (Cell Signaling, 1:1000, 1 h), K48 ubiquitin (Cell Signaling, 1:2000, 1 h) in 2% milk in TBST. Secondary labeling was performed with a one hour incubation in 1:20000 anti-rabbit HRP or 1:10000 anti-mouse HRP (Jackson Immunoresearch) diluted in 2% milk in TBST. Film was then exposed to ECL-coated blots (Pierce) and developed using a standard film processor.

[4] = test system: lysine 63 and lysine 48 polyubiquitin linked-proteins; assay: K63/K48 polyubiquitin western blot in U251-MG cells; type: cell-based, human; conditions: 24 hours, comparable to HCQ (50 uM, 24 h) or MG132 plus bortezomib cocktail
[5] = test system: U87-MG cells; assay: Mitochondrial immunofluorescence (Mitotracker Red / TOMM20) in U87-MG cells; type: cell-based, human; conditions: 24 hours, Mitotracker Red and TOMM20
Protocol: Polarized mitochondria are labeled with Mitotracker Red, while all mitochondria are labeled with an antibody specific to the mitochondrial protein TOMM20.
Immunofluorescence. U87-MG cells were cultured on poly-D-lysine coated coverslips (Neuvitro Corporation) or poly-L-lysine coated coverslips and treated with Compound 1 (Chembridge) for 24 hours. For the last 30 minutes of treatment, cells were labeled with 100 nM Mitotracker Red (Life Technologies). After treatment and labeling, cells were rinsed with PBS. Cells were fixed in 4% methanol-free paraformaldehyde (Electron Microscopy Services) in PBS (Corning) for 10 minutes at room temperature and blocked with immunofluorescence buffer (2% [v/v] goat serum, 0.2% [v/v] Triton X-100 and 0.05% [w/v] sodium azide in PBS) at RT. TOMM20 was labeled using 1:200 rabbit anti-TOM20 (Santa Cruz) at room temperature for one hour, and cells were rinsed 3 times for 5 minutes with PBST. Secondary labeling was performed with 1:600 goat anti-rabbit F(ab′) 2 DyLight 488 at room temperature for 1 hour (Jackson Immunoresearch) diluted in IF buffer. Cells were then rinsed 2 times for five minutes with PBST and then nuclei were labeled with DAPI in PBS for 5 minutes. Coverslips were mounted on glass slides with ProLong Gold (Life Technologies). […]

[6] = test system: LC3B-II; assay: LC3B accumulation, western blot and immunofluorescence; type: cell-based, human; conditions: U87-MG, 24 hours; western blot, immunofluorescent microscopy
Protocol: (§4) U87-MG tumor cells were treated with Y100, hydroxychloroquine (an autophagy inhibitor) or rapamycin (an autophagy inducer) for 24 hours. LC3B-I to LC3-II conversion and tubulin levels were determined by western blot.
as §3

[7] = test system: control strains; assay: Yeast growth assay, control strains (OD 600 nm); type: cell-based, Saccharomyces cerevisiae; conditions: increasing concentrations, 18 hours
Protocol: as §1, §2

[8] = test system: NF1-deficient tumor cells (U87-MG); assay: alamarBlue viability/growth assay in U87-MG cells; type: cell-based, human
Protocol: Cells were incubated with drug for 15 minutes-72 h. At the noted times, the drug was removed, cells were rinsed with PBS, and replaced with normal media. At 69 hours, 5 uL of alamarBlue viability assay reagent was added to each well. At 72 h, the fluorescence was measured (Ex/Em 544/590 nm) as a surrogate indicator of viability. All values were normalized to the fluorescence observed in a vehicle (DMSO) control.
Cells were incubated with drug for 3 or 7 days. 3 hours before the end of the experiment, 5 uL of alamarBlue viability assay reagent was added to each well. At the end of each timepoint, the fluorescence was measured (Ex/Em 544/590 nm) as a surrogate indicator of viability. All values were normalized to the fluorescence observed in a vehicle (DMSO) control.
Viability Assay. Cells are cultured on plastic 96-well plates. Cell viability is estimated using metabolism as a surrogate marker via the ALAMARBLUE viability/proliferation assay (AbD Serotec; Kidlington, UK) according to the protocol of the manufacturer. The modification of the ALAMARBLUE reagent to a fluorescent substrate is measured with a fluorimeter, after which fluorescent intensity is normalized as a percentage of the vehicle control. Assays are done in triplicate.
Dose Response Assays (Mammalian Cells). To perform drug sensitivity assays, U87-MG cells were plated to 96-well plates at a concentration of 5000 cells/well. After overnight incubation, medium was removed and replaced with 100 μL of medium containing 0-20 uM Compound 1 and DMSO (to normalize DMSO concentrations). In the case of the beta-mercaptoethanol and N-acetyl cysteine co-treatment assays, cells were preincubated with these compounds or a vehicle control for 2 h before being replaced with Y100+/− N-acetyl cysteine, beta-mercaptoethanol or vehicle. Cells were incubated for the noted time with a final 3-hour incubation in 5% AlamarBlue (Thermo Scientific). The plate was scanned at an Ex/Em of 544/590 nm, and fluorescence was normalized to vehicle control wells. Dose-response curves and IC50s were calculated with the Prism 6 software package (GraphPad, San Diego, Calif., USA) by performing a 4-parameter logistic regression with outlier exclusion analysis.

[9] = test system: p62/SQSTM-1; assay: p62/SQSTM-1 level, western blot and immunofluorescence; type: cell-based, human; conditions: U87-MG, 24 h; western blot, immunofluorescent microscopy
Protocol: U87-MG tumor cells were treated with compound 1 or hydroxychloroquine (an autophagy inhibitor) for 24 h or a cocktail of proteasome inhibitors (bortezomib, BTZ and MG-132) for 2 h. P62 and tubulin levels were determined by western blot.
as §4
as §3, with “Secondary labeling was performed with a one hour incubation in 1:20000 anti-rabbit HRP or 1:10000 anti-mouse HRP (Jackson Immunoresearch) diluted in 2% milk in TBST. Film was then exposed to ECL-coated blots (Pierce) and developed using a standard film processor.” left out

[10] = test system: U87-MG cells; assay: MitoSOX Red flow cytometry for mitochondrial superoxide; type: cell-based, human; conditions: 24 h of treatment
Protocol: Flow Cytometry. To determine mitochondrial superoxide levels, 500,000 U87-MG cells/well were plated to a 6-well plate and allowed to adhere overnight. The medium was then replaced with cell culture media containing DMSO or Y100. Cells were treated for 24 hours. 30 minutes before the end of the incubation, 1 micromolar MitoSOX Red was added. At the end of the incubation, cells were rinsed with PBS and trypsinized, and then rinsed two more times. The cells were transferred to flow cytometry tubes and analyzed using a MacsQuant VYB 8-color flow cytometer. MitoSOX Red fluorescence was detected using the Y1-A (PE) channel. 30,000 events per sample were collected. Histograms were generated using the FlowJo flow cytometry analysis software package.

[11] = ROS scavenger co-treated for 72 hours, alamarBlue

## CCOC(=O)c1ccc2c3c(onc13)-c1ccccc1C2=O [compound 1]
[1]
  growth / cell death of NF1-deficient yeast (absorbance OD 600 nm): selectively inhibits growth or induces cell death
[2]
  formation of polarized mitochondrial hotspots: induces the formation of polarized mitochondrial hotspots
[3]
  accumulation of lysine 63 and lysine 48 polyubiquitin linked-proteins: induces the accumulation of lysine 63 and lysine 48 polyubiquitin linked-proteins
[4]
  accumulation of lysine 63 and lysine 48 polyubiquitin linked-proteins: induces the accumulation of lysine 63 and lysine 48 polyubiquitin linked-proteins
[5]
  formation of polarized mitochondrial hotspots: induces the formation of polarized mitochondrial hotspots
[6]
  LC3B accumulation (LC3B-I to LC3-II conversion): not LC3B accumulation
[7]
  growth of control yeast strains (absorbance OD 600 nm): without affecting the control strains
[8]; [11]
  effect on U87-MG cells on co-treatment with N-acetyl cysteine (NAC): abrogate the effect of compound 1
  effect on U87-MG cells on co-treatment with β-mercaptoethanol: abrogate the effect of compound 1
[8]; U87-MG, 3-day alamarBlue assay
  effect on cell viability/growth on pretreatment and co-treatment with buthionine sulfoximine (BSO): potentiates the effect of compound 1 on cell viability/growth
[8]; U87-MG, drug removed after 15 minutes-72 h, alamarBlue read at 72 h
  drug exposure time giving an irreversible effect on cell viability/growth: ≤ 15 min
[9]
  autophagy marker p62/SQSTM-1 (P62 accumulation): modulates the autophagy marker and ubiquitin binding scaffold protein p62/SQSTM-1; also recorded: induces P62 accumulation
[10]
  formation and/or accumulation of mitochondrial superoxide (MitoSOX Red): induces the formation and/or accumulation of mitochondrial superoxide

## COC(=O)c1ccc2c3c(onc13)-c1ccccc1C2=O [compound 2]
[1]
  growth / cell death of NF1-deficient yeast (absorbance OD 600 nm): selectively inhibits growth or induces cell death
[7]
  growth of control yeast strains (absorbance OD 600 nm): without affecting the control strains
[8]; incubated with drug for 3 or 7 days
  viability and/or growth of U87 MG cells (alamarBlue): reduces viability and/or growth

## CCN(CCO)CCCC(C)Nc1ccnc2cc(Cl)ccc12 (stereo not drawn) [hydroxychloroquine]
[6]
  LC3B accumulation (LC3B-I to LC3-II conversion): induces accumulation of the autophagy marker LC3B-II
[9]
  autophagy marker p62/SQSTM-1 (P62 accumulation): induces P62 accumulation
